What was measured:
Assay in all cases: inhibition of pNPFuc hydrolysis, A405
Assay type in all cases: biochemical
AmGH29D = molecular target: T1, AmGH29D (Akkermansia muciniphila, UniProt B2UQE4)
T1 construct: gene Amuc_0846; mature peptide lacking the signal peptide
T1 sequence (B2UQE4 25-704): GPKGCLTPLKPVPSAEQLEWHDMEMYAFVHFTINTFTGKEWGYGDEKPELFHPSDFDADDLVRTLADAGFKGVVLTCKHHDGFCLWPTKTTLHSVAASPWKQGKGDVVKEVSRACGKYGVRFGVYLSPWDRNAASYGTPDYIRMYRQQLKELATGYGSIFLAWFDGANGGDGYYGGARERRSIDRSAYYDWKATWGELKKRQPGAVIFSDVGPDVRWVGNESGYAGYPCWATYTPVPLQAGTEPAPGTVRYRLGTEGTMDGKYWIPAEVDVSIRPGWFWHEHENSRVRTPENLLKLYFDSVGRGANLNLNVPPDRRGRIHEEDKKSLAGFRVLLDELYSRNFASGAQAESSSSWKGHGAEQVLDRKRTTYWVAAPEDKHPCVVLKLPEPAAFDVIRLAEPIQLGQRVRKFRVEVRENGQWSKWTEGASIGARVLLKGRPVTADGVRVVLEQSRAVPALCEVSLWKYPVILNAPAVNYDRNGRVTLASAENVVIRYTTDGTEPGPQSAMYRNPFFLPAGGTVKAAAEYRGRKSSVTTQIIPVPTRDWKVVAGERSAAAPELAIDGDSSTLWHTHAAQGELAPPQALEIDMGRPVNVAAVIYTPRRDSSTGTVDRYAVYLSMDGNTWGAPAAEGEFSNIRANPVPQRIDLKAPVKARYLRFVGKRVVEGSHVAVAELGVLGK

AmGH95A = molecular target: T2, AmGH95A (Akkermansia muciniphila, UniProt B2UM81)
T2 construct: gene Amuc_0186; mature peptide lacking the signal peptide
T2 sequence (B2UM81 25-788): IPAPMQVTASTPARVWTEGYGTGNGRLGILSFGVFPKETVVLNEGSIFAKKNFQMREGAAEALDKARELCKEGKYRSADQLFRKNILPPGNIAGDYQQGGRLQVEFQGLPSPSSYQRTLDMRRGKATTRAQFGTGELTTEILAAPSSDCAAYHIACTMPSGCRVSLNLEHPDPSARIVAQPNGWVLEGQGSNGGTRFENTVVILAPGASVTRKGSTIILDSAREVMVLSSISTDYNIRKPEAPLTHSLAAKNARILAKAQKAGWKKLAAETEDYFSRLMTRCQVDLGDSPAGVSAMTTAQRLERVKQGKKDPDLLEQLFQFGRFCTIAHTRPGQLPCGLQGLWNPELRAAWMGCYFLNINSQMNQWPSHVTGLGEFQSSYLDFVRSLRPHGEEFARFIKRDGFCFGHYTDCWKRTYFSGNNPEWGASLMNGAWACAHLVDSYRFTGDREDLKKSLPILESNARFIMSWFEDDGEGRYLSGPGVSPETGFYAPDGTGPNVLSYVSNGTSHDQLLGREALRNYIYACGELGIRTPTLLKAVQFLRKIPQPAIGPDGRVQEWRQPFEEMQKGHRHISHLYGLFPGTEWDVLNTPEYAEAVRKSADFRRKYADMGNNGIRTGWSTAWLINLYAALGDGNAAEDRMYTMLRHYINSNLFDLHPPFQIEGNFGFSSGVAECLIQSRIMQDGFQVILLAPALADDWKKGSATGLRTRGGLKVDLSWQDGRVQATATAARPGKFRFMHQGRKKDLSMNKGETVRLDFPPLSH

AmGH95B = molecular target: T3, AmGH95B (Akkermansia muciniphila, UniProt B2UR61)
T3 construct: gene Amuc_1120; mature peptide lacking the signal peptide
T3 sequence (B2UR61 23-796): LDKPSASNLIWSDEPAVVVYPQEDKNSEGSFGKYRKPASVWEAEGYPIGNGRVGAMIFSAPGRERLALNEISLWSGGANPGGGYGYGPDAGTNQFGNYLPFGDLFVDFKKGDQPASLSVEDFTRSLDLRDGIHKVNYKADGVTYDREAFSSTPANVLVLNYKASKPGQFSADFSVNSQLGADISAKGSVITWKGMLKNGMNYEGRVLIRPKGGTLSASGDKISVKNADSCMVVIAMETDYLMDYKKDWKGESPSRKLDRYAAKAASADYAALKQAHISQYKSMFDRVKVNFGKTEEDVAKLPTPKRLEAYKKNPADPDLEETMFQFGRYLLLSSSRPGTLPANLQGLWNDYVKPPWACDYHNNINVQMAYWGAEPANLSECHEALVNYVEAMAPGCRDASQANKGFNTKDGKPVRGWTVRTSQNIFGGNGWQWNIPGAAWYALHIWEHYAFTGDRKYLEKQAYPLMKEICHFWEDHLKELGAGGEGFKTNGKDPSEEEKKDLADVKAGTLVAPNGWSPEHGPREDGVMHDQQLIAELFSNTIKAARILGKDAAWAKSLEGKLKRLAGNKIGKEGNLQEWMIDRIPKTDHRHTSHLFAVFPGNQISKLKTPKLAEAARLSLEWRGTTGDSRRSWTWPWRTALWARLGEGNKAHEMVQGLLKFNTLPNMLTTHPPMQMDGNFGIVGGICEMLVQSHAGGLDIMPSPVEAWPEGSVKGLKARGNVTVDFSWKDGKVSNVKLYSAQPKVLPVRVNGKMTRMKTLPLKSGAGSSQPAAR

AmGH29B = molecular target: T4, AmGH29B (Akkermansia muciniphila, UniProt B2ULU6)
T4 construct: gene Amuc_0146; mature peptide lacking the signal peptide
T4 sequence (B2ULU6 27-711): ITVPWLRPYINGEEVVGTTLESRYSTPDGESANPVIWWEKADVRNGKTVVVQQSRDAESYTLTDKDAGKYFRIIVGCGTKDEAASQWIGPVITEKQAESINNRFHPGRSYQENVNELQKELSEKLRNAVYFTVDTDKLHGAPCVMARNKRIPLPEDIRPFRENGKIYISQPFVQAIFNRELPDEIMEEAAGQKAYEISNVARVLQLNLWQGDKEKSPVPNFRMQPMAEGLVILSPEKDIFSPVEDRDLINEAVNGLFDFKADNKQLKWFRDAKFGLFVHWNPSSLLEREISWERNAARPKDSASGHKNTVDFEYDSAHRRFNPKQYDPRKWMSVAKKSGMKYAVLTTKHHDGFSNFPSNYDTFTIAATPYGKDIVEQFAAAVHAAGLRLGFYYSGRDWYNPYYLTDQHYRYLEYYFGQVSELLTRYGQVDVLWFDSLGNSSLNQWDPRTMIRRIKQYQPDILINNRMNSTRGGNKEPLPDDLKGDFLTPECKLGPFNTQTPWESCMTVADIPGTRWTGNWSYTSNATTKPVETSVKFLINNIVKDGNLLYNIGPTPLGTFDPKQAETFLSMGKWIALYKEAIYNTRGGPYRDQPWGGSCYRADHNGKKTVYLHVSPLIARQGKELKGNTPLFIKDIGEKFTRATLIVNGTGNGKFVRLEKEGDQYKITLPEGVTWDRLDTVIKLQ

Measured: IC50

C[C@@H]1NC[C@@H](O)[C@H](O)[C@@H]1O [DFJ, 1-Deoxyfuconojirimycin]
< 54 µM: all assays above

Reference: paper PMC10067855, “Sialidases and fucosidases of Akkermansia muciniphila are crucial for growth on mucin and nutrient sharing with mucus-associated gut bacteria” (Nature Communications, 2023)
